Target: T1, Sema3A (Rattus norvegicus, UniProt Q63548)
T1 sequence (Q63548 21-772): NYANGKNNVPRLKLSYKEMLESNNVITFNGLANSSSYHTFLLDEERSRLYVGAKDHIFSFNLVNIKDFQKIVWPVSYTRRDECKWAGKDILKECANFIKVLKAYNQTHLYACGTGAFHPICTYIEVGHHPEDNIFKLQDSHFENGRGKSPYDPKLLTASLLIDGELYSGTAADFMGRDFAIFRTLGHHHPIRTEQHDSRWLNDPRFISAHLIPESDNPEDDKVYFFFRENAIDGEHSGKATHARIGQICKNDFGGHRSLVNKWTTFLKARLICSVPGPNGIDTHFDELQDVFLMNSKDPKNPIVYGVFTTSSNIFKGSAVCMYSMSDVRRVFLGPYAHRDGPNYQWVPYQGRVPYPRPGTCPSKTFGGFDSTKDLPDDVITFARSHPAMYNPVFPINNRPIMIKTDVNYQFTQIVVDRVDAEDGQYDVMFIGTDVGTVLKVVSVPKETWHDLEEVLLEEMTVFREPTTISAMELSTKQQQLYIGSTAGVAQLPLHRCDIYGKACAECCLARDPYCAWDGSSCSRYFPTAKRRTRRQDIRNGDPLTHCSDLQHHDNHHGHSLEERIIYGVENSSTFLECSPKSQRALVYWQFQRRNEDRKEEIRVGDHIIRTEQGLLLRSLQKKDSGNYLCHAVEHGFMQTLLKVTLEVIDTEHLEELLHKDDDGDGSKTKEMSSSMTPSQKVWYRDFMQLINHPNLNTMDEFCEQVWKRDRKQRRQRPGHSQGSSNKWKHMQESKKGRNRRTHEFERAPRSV
Method: To evaluate the potential of the Compound 2 to inhibit Sema3a in a relevant small animal model, a rat axotomy study was carried out. […] Adult male Sprague-Dawley rats (12-15 weeks old, 300 g) were anesthetized (50 mg/kg xylazine and 35 mg/kg ketamine), and their left optic nerves were exposed by lateral canthotomy. Briefly, the conjuctivae were incised lateral to the cornea, and the retractor bulbus muscles were separated. Through a small opening in the meninges (50-100 µm), the nerve fibers were completely transected at a distance of 2-3 mm from the globe. The procedure was performed without damage to the nerve vasculature and optic nerve blood supply and with minimal damage to the meninges by the use of a specially designed glass dissector with a 200- µm tip and a smooth blunt edge (Solomon et al., 1996, Journal of Neuroscience Methods, 70, 21-5). […] Clinical examination of the eyes was performed using a slit lamp, and the eyes were monitored for any signs of hyperemia, edema, dis- charge, fibrin, and other inflammatory parameters. […] Two independent and blinded researchers counted the number of labeled RGC in flat-mounted retinas by fluorescent microscopy. For each retina, 20 representative microscopic fields were evaluated: 10 fields from the peripheral area and 10 fields from the central area (each field covering an area of 0.069 mm2). […]

Structure (SMILES): CCN(CC)CCN(CC(=O)N(CCN1CCCC1)CC(=O)N(CCC1CCCN1C)CC(N)=O)C(=O)OCc1ccccc1 (centres unmarked) [Compound 2, 2-[2-(1-methylpyrrolidin-2-yl)ethyl]-5-(2-pyrrolidin-1-yl)ethyl-8-benzyloxycarbonyl-11,11-diethyl-3,6-dioxo-2,5,8,11-tetraazaundecancarboxamide]
- RGC survival compared to healthy rats (adult male Sprague-Dawley rats, optic nerve axotomy, single intravitreal dose 0.025 µg/eye immediately after surgery, 14 days after optic nerve surgery, 2 days after Di-Asp retrograde staining of RGC): 30%
- prevention of RGC loss (neuroprotection) (rat optic nerve axotomy, single intravitreal dose 0.025 µg/eye in 4 µl PBS, labeled RGC counted in flat-mounted retinas): neuroprotective
